Measurements as given in US20230150920A1, “SALTS AND SOLID FORMS OF 4-BROMO-2,5-DIMETHOXYPHENETHYLAMINE” (priority 2021, published 2023).
“Also recorded” adds a separate entry of the source. Where two headings read alike, the source gives them in different places.

Tests used:
[1] = Dynamic vapor sorption/desorption (DVS), hygroscopicity; type: physicochemical; details: for Hygroscopicity: grade in words, from DVS; for Water uptake (5-85% RH) %: 5-85% RH part of sorption; for Water uptake (85-95% RH) %: 85-95% RH part of sorption; for Water uptake (5-95% RH) %: total
Experimental: The active pharmaceutical ingredient (API), 4-bromo-2,5-dimethoxyphenethylamine hydrochloride, is characterized to evaluate its physical properties. The evaluation is performed by X-ray powder diffraction (XRPD), polarized light microscopy (PLM), differential scanning calorimetry (DSC), thermogravimetry (TG), dynamic vapor sorption/desorption (DVS), and/or solubility testing in organic solvents, water, and mixed solvent systems. XRPD data are used to assess crystallinity. PLM data are used to evaluate crystallinity and particle size/morphology. DSC data are used to evaluate melting point, thermal stability, and crystalline form conversion. TG data are used to evaluate if the API is a solvate or hydrate, and to evaluate thermal stability. DVS data are used to evaluate hygroscopicity of the API and if hydrates can be formed at high relative humidity.
The form characterized in FIGS. 1 and 2 is designated as Form A herein. […] A sharp endotherm at 238° C. in the DSC thermogram is attributed to melting.

[2] = Dynamic vapor sorption (DVS) with XRPD of the post-DVS sample; type: physicochemical; details: for hygroscopicity based on DVS data / moisture gain by DVS / moisture gain by DVS, equivalent moles of water: 25° C.; for hygroscopicity based on DVS data: 5 to 95% RH; for moisture gain by DVS / moisture gain by DVS, equivalent moles of water: adsorption 5 to 95% RH; for post-DVS XRPD result: XRPD of the post-DVS sample; for DVS desorption weight loss, 95-5% RH: desorption 95-5% RH; for behaviour on desorption / form change by XRPD of post-DVS sample: desorption 95 to 5% RH; for DVS sorption weight gain, 5-95% RH: sorption 5-95% RH; for DVS desorption weight loss, 85-5% RH: desorption 85-5% RH; for DVS desorption weight loss, 95-85% RH: desorption 95-85% RH; for DVS sorption weight gain, 5-85% RH: sorption 5-85% RH; for DVS sorption weight gain, 85-95% RH: sorption 85-95% RH
Experimental: Dynamic Vapor Sorption (DVS) analysis was carried out using a TA Instruments Q5000 Dynamic Vapor Sorption analyzer. The instrument was calibrated with standard weights and a sodium bromide standard for humidity. Approximately 10-25 mg of sample was loaded into a metal-coated quartz pan for analysis. The sample was analyzed at 25° C. with a maximum equilibration time of one hour in 10% relative humidity (RH) steps from 5 to 95% RH (adsorption cycle) and from 95 to 5% RH (desorption cycle). The movement from one step to the next occurred either after satisfying the equilibrium criterion of 0.01% weight change or, if the equilibrium criterion was not met, after one hour. The percent weight change values were calculated using Microsoft Excel.
(§1) The DVS analysis was carried out using a TA Instruments Q5000 Dynamic Vapor Sorption analyzer. 13.5 mg of sample was loaded into a metal-coated quartz pan for analysis. After equilibration to 5% relative humidity (RH), the sample was analyzed at 25° C. in 10% RH steps from 5 to 95% RH (adsorption cycle) and from 95 to 5% RH (desorption cycle). The movement from one step to the next occurred either after satisfying the equilibrium criterion of 0.01% weight change in 5 minutes or, if the equilibrium criterion was not met, after 90 minutes. The percent weight change values are calculated using Microsoft Excel®.
as §1, with “DVS analyses were” for “DVS analysis was”, “analyzer. Approximately 7-11” for “analyzer. 13.5”, “equilibration at” for “equilibration to”, “values were” for “values are”
as §1, with “analyzer. Approximately 2” for “analyzer. 13.5”, “equilibration at” for “equilibration to”, “values were” for “values are”

[3] = Deliquescence at 75% RH at ambient temperature; type: physicochemical
[4] = Slurry
Text: The sample was then centrifuged, while still warm, and the mother liquor was decanted. The isolated solids were air-dried and analyzed by XRPD.

[5] = several days at 75% RH at ambient temperature

Compound	Hygroscopicity: weight gain ([1]; 5-95% RH)	Hygroscopicity [1]	hygroscopicity based on DVS data [2]	moisture gain by DVS [2]	moisture gain by DVS, equivalent moles of water [2]	post-DVS XRPD result [2]	DVS desorption weight loss, 95-5% RH [2]	behaviour on desorption / form change by XRPD of post-DVS sample [2]	DVS sorption weight gain, 5-95% RH [2]	deliquescence ([3]; at 75% RH)	deliquescence [3, 5]	Water uptake (5-95% RH) % ([1]; 5-95% RH)	other results
COc1cc(CCN)c(OC)cc1Br.O=S(=O)(O)c1ccccc1 [Besylate (Form 1), 2C-B besylate]	5-95% RH: 0.7%	Slightly	slightly hygroscopic	0.7%	0.2 mol	Consistent with Besylate (Form 1)	95-5% RH: 0.7% loss	does not undergo form conversion	5-95% RH: 0.7% gain	Did not deliquesce	not observed	–	–
COc1cc(CCN)c(OC)cc1Br.O=S(=O)(O)O [Sulfate, 2C-B sulfate]	–	Slightly	slightly hygroscopic	2.2%	approximately 0.5 moles	Consistent with Sulfate	–	form change does not occur	–	Did not deliquesce	not observed	2.2%	Water uptake (5-85% RH) % [1]: 0.8%; Water uptake (85-95% RH) % [1]: (5-85), 1.4 (85-95) %; Hygroscopicity: weight gain ([1]; <85% RH): RH: 0.8%; Hygroscopicity: weight gain ([1]; >85% RH): RH: 1.4%; DVS desorption weight loss, 85-5% RH [2]: 85-5% RH: 0.8% loss; DVS desorption weight loss, 95-85% RH [2]: 95-85% RH: 1.3% loss; DVS desorption total loss [2]: Total loss: 2.1%; DVS sorption weight gain, 5-85% RH [2]: 5-85% RH: 0.8% gain; DVS sorption weight gain, 85-95% RH [2]: 85-95% RH: 1.4% gain; DVS sorption total gain [2]: Total gain: 2.2%
COc1cc(CCN)c(OC)cc1Br.O=C(O)c1cc(O)ccc1O [Gentisate, 2C-B gentisate]	5-95% RH: 0.2%	Non-hygroscopic;	non-hygroscopic	0.2%	0.05 mol	Crystalline, consistent	95-5% RH: 0.2% loss	form change does not occur	5-95% RH: 0.2% gain	Did not deliquesce	not observed; also recorded: does not deliquesce	0.20%	–
COc1cc(CCN)c(OC)cc1Br.O=C(O)CC(O)(CC(=O)O)C(=O)O [Citrate (Form 2), 2C-B Citrate]	5-95% RH: 0.5%	Slightly	slightly hygroscopic	0.5%	0.1 mol	Consistent with Citrate (Form 2)	95-5% RH: 0.5% loss	form change does not occur	5-95% RH: 0.5% gain	Did not deliquesce	not observed	–	–
COc1cc(CCN)c(OC)cc1Br.O=C(O)C(O)C(O)C(=O)O [Tartrate (Form 1), 4-bromo-2,5-dimethoxyphenethylamine (2C-B) tartrate]	5-95% RH: 0.1%	Non-hygroscopic;	non-hygroscopic	0.1%	–	Crystalline, consistent	95-5% RH: 0.1% loss	Form change does not occur	5-95% RH: 0.1% gain	Did not deliquesce	not observed; also recorded: does not deliquesce	0.1%	–
COc1cc(CCN)c(OC)cc1Br.O=C(O)C(O)C(O)C(=O)O [2C-B tartrate, 4-bromo-2,5-dimethoxyphenethylamine (2C-B) tartrate]	–	–	–	–	–	–	–	–	–	–	–	–	XRPD result after slurry ([4]; ACN, 50° C., 9 days): Tartrate (Form 1); XRPD result after slurry ([4]; DMF/acetone 50/50, RT): Tartrate (Form 1); XRPD result after slurry ([4]; EtOAc, 50° C., 9 days): Tartrate (Form 1); XRPD result after slurry ([4]; EtOAc/DMSO 71/29, RT): Tartrate (Form 1) +; XRPD result after slurry ([4]; EtOH, 50° C., 9 days): Tartrate (Form 1); XRPD result after slurry ([4]; EtOH/H2O 50/50, aw = 0.89, RT): Tartrate (Form 1); XRPD result after slurry ([4]; EtOH/H2O 80/20, aw = 0.70, RT): Tartrate (Form 1); XRPD result after slurry ([4]; EtOH/H2O 90/10, aw = 0.49, RT): Tartrate (Form 1); XRPD result after slurry ([4]; IPA, 50° C., 9 days): Tartrate (Form 1); XRPD result after slurry ([4]; IPA/H2O 70/30, aw = 0.94, RT): Tartrate (Form 1); XRPD result after slurry ([4]; MEK, 50° C., 9 days): Tartrate (Form 1); XRPD result after slurry ([4]; MeOH, RT): Tartrate (Form 1); XRPD result after slurry ([4]; MeOH/H2O 95/5, aw = 0.16, RT): Tartrate (Form 1); XRPD result after slurry ([4]; THF/H2O 50/50, aw = 1.00, 5° C.): Tartrate (Form 1); XRPD result after slurry ([4]; acetone/H2O 50/50, aw = 0.91, 5° C.): Tartrate (Form 1)
2C-B glycolate	–	Mod. hygroscopic; <85%	moderately hygroscopic	3.6%	0.7 mol	Consistent with Glycolate	–	form change is not apparent by XRPD	–	Did not deliquesce	not observed	3.6%	Water uptake (5-85% RH) % [1]: 0.9%; Water uptake (85-95% RH) % [1]: (5-85), 2.7 (85-95) %; Hygroscopicity: weight gain ([1]; <85% RH): RH: 0.9%; Hygroscopicity: weight gain ([1]; >85% RH): RH: 2.7% gain; moisture gain by DVS above 85% RH ([2]; above 85% RH): 2.7%; DVS desorption weight loss, 85-5% RH [2]: 85-5% RH: 1.1% loss; DVS desorption weight loss, 95-85% RH [2]: 95-85% RH: 2.6% loss; DVS desorption total loss [2]: Total loss: 3.7%; DVS sorption weight gain, 5-85% RH [2]: 5-85% RH: 0.9% gain; DVS sorption weight gain, 85-95% RH [2]: 85-95% RH: 2.7% gain; DVS sorption total gain [2]: Total gain: 3.6%
